Assay [1] concerns the target T1, Axl (Homo sapiens, UniProt P30530).
T1 sequence (P30530 26-894): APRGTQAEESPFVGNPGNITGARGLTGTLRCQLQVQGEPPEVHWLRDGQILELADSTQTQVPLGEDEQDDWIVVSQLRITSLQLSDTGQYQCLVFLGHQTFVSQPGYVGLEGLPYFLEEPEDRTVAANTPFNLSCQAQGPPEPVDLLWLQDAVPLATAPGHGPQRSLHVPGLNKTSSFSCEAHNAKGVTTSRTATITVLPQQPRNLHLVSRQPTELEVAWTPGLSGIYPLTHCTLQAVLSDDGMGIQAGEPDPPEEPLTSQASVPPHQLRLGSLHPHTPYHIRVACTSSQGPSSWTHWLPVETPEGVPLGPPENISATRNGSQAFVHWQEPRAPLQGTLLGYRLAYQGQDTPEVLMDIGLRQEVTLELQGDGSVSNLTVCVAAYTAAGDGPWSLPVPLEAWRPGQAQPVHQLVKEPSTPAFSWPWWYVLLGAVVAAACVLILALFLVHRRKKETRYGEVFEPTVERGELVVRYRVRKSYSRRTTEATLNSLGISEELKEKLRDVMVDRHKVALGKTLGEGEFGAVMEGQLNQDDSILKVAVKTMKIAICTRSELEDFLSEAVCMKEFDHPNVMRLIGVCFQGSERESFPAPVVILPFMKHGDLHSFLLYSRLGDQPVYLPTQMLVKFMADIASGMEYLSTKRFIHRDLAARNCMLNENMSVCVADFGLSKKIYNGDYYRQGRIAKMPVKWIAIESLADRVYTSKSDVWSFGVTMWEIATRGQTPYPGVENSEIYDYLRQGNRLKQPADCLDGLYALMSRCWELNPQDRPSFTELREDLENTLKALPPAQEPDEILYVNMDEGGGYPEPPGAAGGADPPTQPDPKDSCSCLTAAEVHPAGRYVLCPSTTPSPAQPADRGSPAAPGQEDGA
The experiment in a line: Axl NanoBRET intracellular kinase assay (intracellular binding, K-5 tracer displacement). To be noted: HEK-293 cells transfected with Axl-NanoLuc, 0.35 μM K-5 NanoBRET tracer; read-out: Cell Binding AXL. More on the design: host or cells: HEK-293. As to the method:
Measuring Intracellular Binding of Axl Inhibitors
Axl NanoBRET™ intracellular kinase assay (Promega, N2540) was performed according to manufacturer's recommendation. In brief, HEK-293 cells are transiently transfected with Ax1-NanoLuc fusion vector (Promega, NV1071), utilizing Fugene HD transfection reagent (Promega, E2311) a day before experiment following manufacturer's recommendation.
The day of the assay, the cells were collected and resuspended in Opti-MEM media (ThermoFisher, 31985070) at 2e5 cells/mL concentration. Testing compounds were serial diluted and dispensed into a white 384 well polystyrene plate at 200 nL in 100% DMSO. 40 μL of resuspended cells is then added per well for a final condition of 8K cells/well with 0.5% DMSO. After one-hour compound pre-incubation at 37° C. and 5% CO2, cells were further incubated with 0.35 μM K-5 NanoBRET tracer for two-hours at 37° C. and 5% CO2. […] of 3× substrate plus Inhibitor solution was prepared according to kits manual and added to the cells followed by a 30 second pulse centrifugation spin. The plate was then immediately read utilizing an Envision (Perkin Elmer) plate reader. The BRET signal is measured by taking the ratio of the emissions reading at 610 nm and 450 nm. Compound binding is based on the decrease BRET signal caused by the displacement of the K-5 tracer. […] ICso value of compounds was determined by 4-parameter non-linear regression fitting of percent activity in GraphPad Prism software.

The target in assay [2] is T1, Axl. Description: Biochemical potency, HTRF KinEASE-TK kinase assay. More on the design: purchased Invitrogen. To be noted: 5 nM AXL, 700 μM ATP. In outline: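 Compounds preincubated 1 h at RT with enzyme in 50 mM HEPES pH 7.4, 10 mM MgCl2, 0.01% BSA, 1 mM DTT; reactions then ran 2 h at RT with 5 nM AXL or 1 nM TYRO3/MER, 800 nM TK substrate-biotin, 700 μM ATP, 1% DMSO. HTRF 665/620 ratio read; percent activity calculated.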
In general terms: Time-resolved FRET reads energy transfer from a long-lived donor to a nearby acceptor.

Consider `COc1cc(-c2c[nH]c3ncc(-c4ccc5c(c4)CC[C@@H](N4C6COCC4C6)CC5)cc23)ccc1-c1ccccn1` [Example 161, 6-[(7S)-2-{3-[3-Methoxy-4-(pyridin-2-yl)phenyl]-1H-pyrrolo[2,3-b]pyridin-5-yl}-6,7,8,9-tetrahydro-5H-benzo[7]annulen-7-yl]-3-oxa-6-azabicyclo[3.1.1]heptane], for which the IC50 on Axl [1] was 100 to 1000 nM; against Axl [2] it was < 100 nM.
The corresponding values for `COc1cccc(-c2ccc(-c3n[nH]c4ncc(-c5ccc6c(c5)CC[C@@H](N5C7COCC5C7)CC6)cc34)cc2)n1` [Example 162, 6-[(7S)-2-{3-[4-(6-Methoxypyridin-2-yl)phenyl]-2H-pyrazolo[3,4-b]pyridin-5-yl}-6,7,8,9-tetrahydro-5H-benzo[7]annulen-7-yl]-3-oxa-6-azabicyclo[3.1.1]heptane] are > 1000 nM and < 100 nM.
Consider `C[C@@H]1CCCN1[C@@]1(C)CCc2ccc(-c3cnc4[nH]nc(-c5ccc(-c6nccs6)cc5)c4c3)cc2CC1` [Example 91, 2-(4-{5-[(7S)-7-Methyl-7-[(2R)-2-methylpyrrolidin-1-yl]-6,7,8,9-tetrahydro-5H-benzo[7]annulen-2-yl]-2H-pyrazolo[3,4-b]pyridin-3-yl}phenyl)-1,3-thiazole], for which the IC50 on Axl [1] and at Axl [2] was < 100 nM in each case.
Turning to `c1cc(-n2cc(-c3c[nH]c4ncc(-c5ccc6c(c5)CC[C@@H](N5C7COCC5C7)CC6)cc34)cn2)ccn1` [Example 45, 6-[(7S)-2-{3-[1-(Pyridin-4-yl)-1H-pyrazol-4-yl]-1H-pyrrolo[2,3-b]pyridin-5-yl}-6,7,8,9-tetrahydro-5H-benzo[7]annulen-7-yl]-3-oxa-6-azabicyclo[3.1.1]heptane], the IC50 at Axl [1] and against Axl [2] was < 100 nM each time.
Turning to `Cc1cncnc1-c1ccc(-c2c[nH]c3ncc(-c4ccc5c(c4)CC[C@@H](N4C6COCC4C6)CC5)cc23)cc1` [Example 47, 6-[(7S)-2-{3-[4-(5-Methylpyrimidin-4-yl)phenyl]-1H-pyrrolo[2,3-b]pyridin-5-yl}-6,7,8,9-tetrahydro-5H-benzo[7]annulen-7-yl]-3-oxa-6-azabicyclo[3.1.1]heptane], the IC50 at Axl [1] and against Axl [2] was < 100 nM in each case.
Regarding `c1cncc(-c2ccc(-c3n[nH]c4ncc(-c5ccc6c(c5)CC[C@@H](N5C7COCC5C7)CC6)cc34)cc2)c1` [Example 157, 6-[(7S)-2-{3-[4-(Pyridin-3-yl)phenyl]-2H-pyrazolo[3,4-b]pyridin-5-yl}-6,7,8,9-tetrahydro-5H-benzo[7]annulen-7-yl]-3-oxa-6-azabicyclo[3.1.1]heptane], the IC50 on Axl [1] was 100 to 1000 nM; on Axl [2], < 100 nM.
Turning to `Cc1cccnc1-c1ccc(-c2n[nH]c3ncc(-c4ccc5c(c4)CC[C@@H](N4C6COCC4C6)CC5)cc23)cc1` [Example 2, 6-[(7S)-2-{3-[4-(3-Methylpyridin-2-yl)phenyl]-2H-pyrazolo[3,4-b]pyridin-5-yl}-6,7,8,9-tetrahydro-5H-benzo[7]annulen-7-yl]-3-oxa-6-azabicyclo[3.1.1]heptane], the IC50 at Axl [1] and against Axl [2] was < 100 nM in each case.
Take `c1cc(-c2ccc(-c3c[nH]c4ncc(-c5ccc6c(c5)CC[C@@H](N5C7COCC5C7)CC6)cc34)cc2)ccn1` [Example 41, 6-[(7S)-2-{3-[4-(Pyridin-4-yl)phenyl]-1H-pyrrolo[2,3-b]pyridin-5-yl}-6,7,8,9-tetrahydro-5H-benzo[7]annulen-7-yl]-3-oxa-6-azabicyclo[3.1.1]heptane]: the IC50 at Axl [1] is 100 to 1000 nM; against Axl [2], < 100 nM.
The corresponding values for `Clc1cc(-c2c[nH]c3ncc(-c4ccc5c(c4)CC[C@@H](N4C6COCC4C6)CC5)cc23)ccc1-c1ccccn1` [Example 44, 6-[(7S)-2-{3-[3-Chloro-4-(pyridin-2-yl)phenyl]-1H-pyrrolo[2,3-b]pyridin-5-yl}-6,7,8,9-tetrahydro-5H-benzo[7]annulen-7-yl]-3-oxa-6-azabicyclo[3.1.1]heptane] are < 100 nM and < 100 nM.
Take `COc1cc(-c2n[nH]c3ncc(-c4ccc5c(c4)CC[C@@H](N4C6COCC4C6)CC5)cc23)ccc1-c1ccccn1` [Example 160, 6-[(7S)-2-{3-[3-Methoxy-4-(pyridin-2-yl)phenyl]-2H-pyrazolo[3,4-b]pyridin-5-yl}-6,7,8,9-tetrahydro-5H-benzo[7]annulen-7-yl]-3-oxa-6-azabicyclo[3.1.1]heptane]: the values for the IC50 at Axl [1] and on Axl [2] were 100 to 1000 nM and < 100 nM, respectively.
The corresponding values for `Cc1ccnnc1-c1ccc(-c2c[nH]c3ncc(-c4ccc5c(c4)CC[C@@H](N4C6COCC4C6)CC5)cc23)cc1` [Example 49, 6-[(7S)-2-{3-[4-(4-Methylpyridazin-3-yl)phenyl]-1H-pyrrolo[2,3-b]pyridin-5-yl}-6,7,8,9-tetrahydro-5H-benzo[7]annulen-7-yl]-3-oxa-6-azabicyclo[3.1.1]heptane] are < 100 nM and < 100 nM.
For `N#Cc1cccnc1-c1ccc(-c2c[nH]c3ncc(-c4ccc5c(c4)CC[C@@H](N4C6COCC4C6)CC5)cc23)cc1` [Example 46, 2-(4-{5-[(7S)-7-{3-Oxa-6-azabicyclo[3.1.1]heptan-6-yl}-6,7,8,9-tetrahydro-5H-benzo[7]annulen-2-yl]-1H-pyrrolo[2,3-b]pyridin-3-yl}phenyl)pyridine-3-carbonitrile], the IC50 at Axl [1] and at Axl [2] was < 100 nM throughout.
Regarding `Cc1nccnc1-c1ccc(-c2c[nH]c3ncc(-c4ccc5c(c4)CC[C@@H](N4C6COCC4C6)CC5)cc23)cc1` [Example 48, 6-[(7S)-2-{3-[4-(3-Methylpyrazin-2-yl)phenyl]-1H-pyrrolo[2,3-b]pyridin-5-yl}-6,7,8,9-tetrahydro-5H-benzo[7]annulen-7-yl]-3-oxa-6-azabicyclo[3.1.1]heptane], the IC50 at Axl [1] and against Axl [2] was < 100 nM each time.
Turning to `C[C@@H]1CCCN1[C@@]1(C)CCc2ccc(-c3cnc4[nH]nc(-c5ccc(-c6ncco6)cc5)c4c3)cc2CC1` [Example 90, 2-(4-{5-[(7S)-7-Methyl-7-[(2R)-2-methylpyrrolidin-1-yl]-6,7,8,9-tetrahydro-5H-benzo[7]annulen-2-yl]-2H-pyrazolo[3,4-b]pyridin-3-yl}phenyl)-1,3-oxazole], the IC50 at Axl [1] and at Axl [2] was < 100 nM throughout.
Regarding `CN(C)C(=O)c1ccccc1-c1ccc(-c2c[nH]c3ncc(-c4ccc5c(c4)CC[C@@H](N4C6COCC4C6)CC5)cc23)cc1` [Example 92, N,N-Dimethyl-4′-{5-[(7S)-7-{3-oxa-6-azabicyclo[3.1.1]heptan-6-yl}-6,7,8,9-tetrahydro-5H-benzo[7]annulen-2-yl]-1H-pyrrolo[2,3-b]pyridin-3-yl}-[1,1′-biphenyl]-2-carboxamide], the IC50 on Axl [1] and against Axl [2] was < 100 nM in each case.
Consider `Clc1cccnc1-c1ccc(-c2c[nH]c3ncc(-c4ccc5c(c4)CC[C@@H](N4C6COCC4C6)CC5)cc23)cc1` [Example 43, 6-[(7S)-2-{3-[4-(3-Chloropyridin-2-yl)phenyl]-1H-pyrrolo[2,3-b]pyridin-5-yl}-6,7,8,9-tetrahydro-5H-benzo[7]annulen-7-yl]-3-oxa-6-azabicyclo[3.1.1]heptane], for which the IC50 on Axl [1] is 100 to 1000 nM; on Axl [2], < 100 nM.

These data come from patent US12195482B1 (Arcus Biosciences, Inc., priority 2022, dated 2025).
